Like-named read-outs stand apart in the source and are kept apart here.
Legend:
[1] = Plasma stability, mouse; format: in vitro ADME; conditions: mouse (ms)
Text: (§1) The stability of compounds in mouse (ms), rat (r), dog (d), cynomolgus monkey (cy), and human (hu) plasma is shown in Table 10 by the percentages of compounds remaining at two hours.

[2] = tested on: Phlebotomus argentipes; assay: Membrane feeding, sand fly Phlebotomus argentipes; conditions: in vivo
Text: (§2) Isoxazoline compounds fluralaner or afoxolaner were reconstituted in 50% human serum and 50% red blood cells and administered to sand flies Lutzomyia longipalpis and Phlebotomus argentipes via standard membrane feeding. These san fly species are vectors for visceral leishmaniasis. FIG. 12A represents a plot of viable Lutzomyia longipalpis versus fluralaner concentration at various times of assessment. FIG. 12B represents a plot of viable Lutzomyia longipalpis versus afoxolaner concentration at various times of assessment. FIG. 12C represents a plot of viable Phlebotomus argentipes versus fluralaner concentration at various times of assessment. FIG. 12D represents a plot of viable Phlebotomus argentipes versus afoxolaner concentration at various times of assessment. […] The EC50 values of each compound for sand fly death were determined by logistic regression using a least squares method to find the best fit and are shown in the figures.

[3] = tested on: Lutzomyia longipalpis; assay: Membrane feeding, sand fly Lutzomyia longipalpis; conditions: in vivo
Text: as §2

[4] = Further in vitro degradation assay, rat primary hepatocytes
Description: In a further assay, isoxazolines (fluralaner and afoxolaner) and control compounds (7-Ethoxycoumarin and 7-Hydroxycoumarin [Sigma]) were dissolved in DMSO at 10 and 30 mM respectively, then diluted first 20-fold with 45% methanol in water and a further 10-fold in pre-warmed Williams' Medium E. Cryopreserved human, dog and rat hepatocytes (In Vitro Technologies) were thawed, isolated by percoll gradient and suspended in Williams' Medium E. Cells were then dispensed into the wells of 96-well plates containing 10 μL of diluted compounds, to reach a final concentration of 0.5×10^6 cells/mL and 1 μM of isoxazolines or 3 μM of control. After an incubation at 37° C. of 0, 15, 30, 60 or 90 minutes, the reaction was stopped with acetonitrile. The samples were then shaken for 10 minutes at 500 rpm and centrifuged at 3220 g for 20 minutes. Supernatants were transferred and stored at 4° C. until LC-MS-MS analysis.

[5] = tested on: Aedes aegypti (New Orleans); assay: Membrane feeding, Aedes aegypti New Orleans strain; format: in vivo; conditions: read-out: IC50 [95% CI]
[6] = Plasma stability, human; format: in vitro ADME; conditions: human (hu)
Text: as §1

[7] = tested on: Aedes aegypti (Cayman); assay: Membrane feeding, Aedes aegypti Cayman strain; format: in vivo; conditions: read-out: IC50 [95% CI]
[8] = Plasma stability, rat; format: in vitro ADME; conditions: rat (r)
Text: as §1

[9] = tested on: Brugia pahangi; assay: Brugia pahangi microfilariae viability (Cell-Titer Glo); format: in vivo
Description: Microfilariae of Brugia pahangi were kept in 75 cm^2 flasks in RPMI-1640 with fetal bovine serum as described previously (Plos Negl. Trop. Dis. 2012, e1494). To test viability, 384-well plates were filled with 250 microfilariae per well. Serial dilutions of isoxazolines, ivermectin, moxidectin and equivalent vehicle concentration (0.5% DMSO) were added to the wells. Seventy two hours after treatment, viability was assessed with the Cell-Titer Glo reagent (Promega). FIG. 13A represents a plot of viable Brugia pahangi versus fluralaner, afoxolaner, or control compound (moxidectin and ivermectin) concentration as assessed at 24 hours. FIG. 13B represents a plot of viable Brugia pahangi versus fluralaner, afoxolaner, or control compound (moxidectin and ivermectin) concentration as assessed at 48 hours. FIG. 13C represents a plot of viable Brugia pahangi versus fluralaner, afoxolaner, or control compound (moxidectin and ivermectin) concentration as assessed at 72 hours.

[10] = Dog pharmacokinetics, single oral dose; format: in vivo; conditions: level at Day 45
[11] = Plasma stability, cynomolgus monkey; format: in vitro ADME; conditions: cynomolgus monkey (cy)
Text: as §1

[12] = Plasma stability, dog; format: in vitro ADME; conditions: dog (d)
Text: as §1

[13] = cited from earlier work
[14] = Brain homogenate binding assay (equilibrium dialysis)
Description: Briefly, frozen tissue homogenate (homogenized with buffer at a certain volume ratio) was used as a test matrix. The tissue homogenate was purchased from Bioreclamation (Hicksville, N.Y., USA) or prepared by WuXi AppTec.
Isoxazoline compounds were spiked into blank tissue homogenate at the test concentration. Triplicate samples were used.
An appropriate volume of spiked tissue sample was removed before incubation for recovery calculation. An aliquot (e.g., 150 μL) of matrix sample was added to the donor side of the chamber (donor chamber) in a dialyzer plate (HTD dialysis device or RED device) and a certain amount of dialysis buffer was loaded to the other side of the chamber (receiver chamber). Triplicate incubations were performed (or other replicate number according to specific requirement).
The dialyzer plate was placed into a humidified incubator with 5% CO2 and incubated at 37° C. for appointed time (the general incubation time is 4-6 h).
After incubation, samples were removed from the donor side as well as the receiver side.
The samples were matched with appropriate amount of the opposite blank matrix (tissue homogenate or buffer). […]
The samples were analyzed by LC-MS/MS. Test compound concentrations in matrix and buffer samples were assessed based on the peak area ratios (PAR) of analyte/internal standard (no standard curve).

Q: Which results are given for `O=C(CNC(=O)c1ccc(C2=NO[C@](c3cc(Cl)cc(C(F)(F)F)c3)(C(F)(F)F)C2)c2ccccc12)NCC(F)(F)F` (racemic) [Afoxolaner, afoxolaner]?
A: Plasma stability % remaining @ 2 h [1]: 83% (ms);; killing of sand flies (in words) [2]: effective at killing the sand flies in a dose-dependent manner; killing of sand flies (in words) [3]: effective at killing the sand flies in a dose-dependent manner; half-life ([4]; hepatocytes): > 3.61 h; hepatocyte CLint ([4]; hepatocytes): < 6.4 µL/min/1e6 cells; IC50 ([5]; 24 h): 100 nM; Plasma stability % remaining @ 2 h [6]: 84% (hu); IC50 ([7]; 24 h): 90.2 nM; Plasma stability % remaining @ 2 h [8]: 61% (r);; killing of Brugia pahangi (in words) [9]: effective in killing Brugia pahangi; Dog PK (PO) [10]: ~600 nM at Day 45; Plasma stability % remaining @ 2 h [11]: 84% (cy);; Plasma stability % remaining @ 2 h [12]: 100% (d);; embryo-fetal development in rats [13]: unaffected

Q: For `O=C(CNC(=O)c1ccc(C2=NO[C@@](c3cc(Cl)cc(Cl)c3)(C(F)(F)F)C2)c2ccccc12)NCC(F)(F)F` [(S)-4-(5-(3,5-dichlorophenyl)-5-(trifluoromethyl)-4,5-dihydroisoxazol-3-yl)-N-(2-oxo-2-((2,2,2-trifluoroethyl)amino)ethyl)-1-naphthamide], which “Brain homogenate % binding” value [14] is on record?
A: >99.9%

Q: Which “Brain homogenate % binding” value [14] does the source give for `O=C(CNC(=O)c1ccc(C2=NO[C@@](c3cc(Cl)cc(C(F)(F)F)c3)(C(F)(F)F)C2)c2ccccc12)NCC(F)(F)F` [(S)-afoxolaner] here?
A: >99.9%

Q: For `Cc1cc(C2=NO[C@](c3cc(Cl)cc(Cl)c3)(C(F)(F)F)C2)ccc1C(=O)NCC(=O)NCC(F)(F)F` [Fluralaner, fluralaner], which “killing of sand flies (in words)” value [2] is on record?
A: effective at killing the sand flies in a dose-dependent manner

Q: What about the “killing of sand flies (in words)” value [3] of the same compound?
A: effective at killing the sand flies in a dose-dependent manner

Q: And the half-life ([4]; cryopreserved hepatocytes)?
A: > 3.61 h

Q: And the hepatocyte CLint ([4]; cryopreserved hepatocytes)?
A: < 6.4 µL/min/1e6 cells

Q: What about the IC50 ([5]; 24 hours after the blood meal, New Orleans strain) of the same compound?
A: 34.2 nM

Q: What about the IC50 ([7]; 24 hours after the blood meal, Cayman strain) of the same compound?
A: 35.8 nM

Q: And the “killing of Brugia pahangi (in words)” value [9]?
A: effective in killing Brugia pahangi

Q: What about the “embryo-fetal development in rats” value [13] of the same compound?
A: unaffected

— patent US20200061026A1, “METHODS AND COMPOSITIONS FOR PREVENTING VECTOR-BORNE DISEASE TRANSMISSION” (The Scripps Research Institute, priority 2016, published 2020)
